Data: ChEMBL document CHEMBL3124812, “Benzamidobenzoic acids as potent PqsD inhibitors for the treatment of Pseudomonas aeruginosa infections” (Eur J Med Chem, 2014)
Active and inactive are the calls of the source. The rule behind the calls is not given here.

system: Escherichia coli; assay: Inhibition of Escherichia coli RNAP assessed as incorporation of [5,6-3H]UTP at 200 uM preincubated for 10 mins followed by DNA template and ATP, CTP, GTP, UTP, [5,6-3H]UTP addition measured after 10 mins by scintillation counting analysis; settings: not given

| Compound | inhibition |
| --- | --- |
| CN(C)S(=O)(=O)c1cccc(C(=O)Nc2ccccc2C(=O)O)c1 | inactive |
| CCN(CC)S(=O)(=O)c1cccc(C(=O)Nc2cccc(OC)c2C(=O)O)c1 | inactive |
| CCN(CC)S(=O)(=O)c1cccc(C(=O)Nc2ccccc2C(=O)O)c1 | inactive |
| O=C(Nc1ccccc1C(=O)O)c1cccc(S(=O)(=O)N2CCCCCC2)c1 | inactive |
| CCN(CC)C(=O)c1cccc(C(=O)Nc2ccc(Br)cc2C(=O)O)c1 | inactive |
| CCN(CC)S(=O)(=O)c1cccc(C(=O)Nc2cccc(F)c2C(=O)O)c1 | inactive |
| NS(=O)(=O)c1cccc(C(=O)Nc2ccccc2C(=O)O)c1 | inactive |
| CCN(Cc1ccccc1)S(=O)(=O)c1cccc(C(=O)Nc2ccccc2C(=O)O)c1 | 29% |
| CCN(CC)S(=O)(=O)c1cccc(C(=O)Nc2cc([N+](=O)[O-])ccc2C(=O)O)c1 | inactive |
| CCN(CC)S(=O)(=O)c1cccc(C(=O)Nc2cc(F)ccc2C(=O)O)c1 | inactive |
| CCN(CC)S(=O)(=O)c1cccc(C(=O)Nc2ccc(C)cc2C(=O)O)c1 | inactive |
| CCc1ccc(C(=O)Nc2ccccc2C(=O)O)cc1S(=O)(=O)N(CC)CC | inactive |
| O=C(Nc1ccccc1C(=O)O)c1cccc(S(=O)(=O)N2CCCCC2)c1 | inactive |
| CCN(CC)C(=O)c1cccc(C(=O)Nc2ccccc2C(=O)O)c1 | inactive |
| CCCN(CCC)S(=O)(=O)c1cccc(C(=O)Nc2ccccc2C(=O)O)c1 | inactive |
| CCN(CC)S(=O)(=O)c1ccc(C(=O)Nc2ccccc2C(=O)O)cc1 | inactive |
| CCN(CC)S(=O)(=O)c1cc(C(=O)Nc2ccccc2C(=O)O)ccc1C | inactive |

system: not listed separately; assay: Inhibition of Pseudomonas aeruginosa His-6-tagged PqsD expressed in Escherichia coli BL21 (lambdaDE3) using anthraniloyl-CoA/beta-ketodecanoic acid as substrate by LC-MS/MS analysis; settings: not given

| Compound | IC50 |
| --- | --- |
| O=C(Nc1ccccc1C(=O)O)c1ccccc1 | Not Active |
| COc1cccc(NC(=O)c2ccc(-c3ccccc3)cc2)c1C(=O)O | Not Active |

same assay, conditions: read-out: IC50

| Compound | IC50 [µM] |
| --- | --- |
| O=C(Nc1ccc(Br)cc1C(=O)O)c1cccc(Cc2ccccc2)c1 | 5 |
| O=C(Nc1cc(-c2ccccc2)ccc1C(=O)O)c1cccc(Oc2ccccc2)c1 | 6.6 |
| O=C(Nc1ccc(Br)cc1C(=O)O)c1cccc(Oc2ccccc2)c1 | 4.4 |
| O=C(Nc1ccc(Cl)cc1C(=O)O)c1ccc(-c2ccccc2)cc1 | 3.8 |
| O=C(Nc1ccc(Br)cc1C(=O)O)c1ccc(-c2ccccc2)cc1 | 3.2 |
| O=C(Nc1ccc(O)cc1C(=O)O)c1ccc(-c2ccccc2)cc1 | 4.2 |
| N#Cc1ccc(NC(=O)c2ccc(-c3ccccc3)cc2)c(C(=O)O)c1 | 8.6 |
| O=C(Nc1cc(F)ccc1C(=O)O)c1ccc(-c2ccccc2)c(Oc2ccccc2)c1 | 6 |
| O=C(Nc1cc([N+](=O)[O-])ccc1C(=O)O)c1ccc(-c2ccccc2)cc1 | 3.3 |
| O=C(Nc1cc(Br)ccc1C(=O)O)c1ccc(-c2ccccc2)cc1 | 3.2 |
| O=C(Nc1cc(Cl)ccc1C(=O)O)c1ccc(-c2ccccc2)cc1 | 8.7 |
| O=C(Nc1c(Cl)cccc1C(=O)O)c1ccc(-c2ccccc2)cc1 | 6.2 |
| O=C(Nc1cc(F)ccc1C(=O)O)c1ccc(-c2ccccc2)cc1 | 18.2 |
| O=C(Nc1cc(Cl)ccc1C(=O)O)c1ccc(-c2ccccc2)c(Oc2ccccc2)c1 | 5 |
| O=C(Nc1cc(Cl)ccc1C(=O)O)c1cccc(Oc2ccccc2)c1 | 5.7 |
| O=C(Nc1ccccc1C(=O)O)c1ccc(-c2ccccc2)c(Oc2ccccc2)c1 | 6.6 |
| O=C(Nc1ccc(F)cc1C(=O)O)c1ccc(-c2ccccc2)cc1 | 15.2 |
| O=C(Nc1ccc(C(F)(F)F)cc1C(=O)O)c1ccc(-c2ccccc2)cc1 | 3.4 |
| O=C(Nc1ccc(OC(F)(F)F)cc1C(=O)O)c1ccc(-c2ccccc2)cc1 | 4 |
| O=C(Nc1cc(Br)ccc1C(=O)O)c1cccc(Oc2ccccc2)c1 | 5.1 |
| O=C(Nc1ccc(-c2ccccc2)cc1C(=O)O)c1cccc(Oc2ccccc2)c1 | 7.7 |
| O=C(Nc1cc(C(F)(F)F)ccc1C(=O)O)c1ccc(-c2ccccc2)cc1 | 4.9 |
